Assay results: patent US8034787B2, “Enzyme-cleavable prodrug compounds” (Medarex, Inc., priority 1998, dated 2011)
Square brackets hold non-standard residues; d marks the D form. Peptide text beside a SMILES is read from it. * marks the point of attachment. Mcc = 7-methoxycoumarin-3-carboxyl, COc1ccc2cc(C(=O)*)c(=O)oc2c1; Sta = CC(C)C[C@H](N)[C@@H](O)CC(=O)O; Isovaleryl = CC(C)CC(=O)*

Experiments:
[1] = target: T1, MCF-7/6 cell conditioned media trouase (Homo sapiens, UniProt P52888); assay: Thiol activation of MCF-7/6 conditioned medium; type: biochemical; settings: 1 mM DTT, 30 minutes pre-incubation
T1 construct: MCF-7/6 conditioned medium was pre-incubated for 30 minutes at room temperature with dithiothreitol (DTT); endogenous in cells; host or cells: MCF-7/6 conditioned medium

[2] = target: T2, MCF-7/6 cell homogenate trouase (Homo sapiens, UniProt P52888); assay: Inhibition of MCF-7/6 cell homogenate trouase activity; type: biochemical
T2 construct: the cells (approximately 300 μL wet) were homogenized by grinding in 1.7 mL 10 mM pH 7.2 HEPES buffer; endogenous in cells; host or cells: MCF-7/6 (breast carcinoma)

[3] = Acute toxicity of N-capped prodrugs, intravenous bolus in mice; type: in vivo; settings: intravenous bolus of 250 mg/kg (Dox-HCl eq.), three to five mice per group
HL-60 cells = assay: 3H-thymidine incorporation proliferation assay; type: cell-based; settings: 24 hours
Method: Promyelocytic leukemia cells, HL-60, were cultured in RPMI media containing 10% heat inactivated fetal calf serum (FCS). On the day of the study, the cells were collected, washed and resuspended at a concentration of 0.5×10^6 cells/ml in RPMI containing 10% FCS. 100 μl/well of cell suspension was added to 96 well plates. […] Finally, 10 μl of a 100 μCi/ml ^3H-thymidine was added per well and the plates were incubated for 24 hours. The plates were harvested using a 96 well Harvester (Packard Instruments) and counted on a Packard Top Count counter. Four parameter logistic curves were fitted to the ^3H-thymidine incorporation as a function of drug molarity using Prism software to determine IC50 values.

MCF 7/6 cell homogenate = assay: Extent of cleavage by cell homogenate (Example 14); type: biochemical, human; settings: 12.5 μg/mL, 2 hr, 37° C.
[4] = target: T3, partially purified trouase preparation (Homo sapiens, UniProt P52888); assay: Extent of cleavage by partially purified trouase preparation (Example 14); type: biochemical; settings: 12.5 μg/mL, 2 hr, 37° C.
T3 construct: The fractions containing the highest activity levels were pooled (fractions #43-46); host or cells: HeLa

[5] = target: T4, recombinant rat TOP (rRTOP) (Rattus norvegicus, UniProt P24155); assay: Rates of hydrolysis by recombinant rat TOP; type: biochemical; settings: for Rate of hydrolysis TOP: 10 μg/mL substrate, pH 7.2 10 mM HEPES, 100 μM MnCl2, 37° C., Suc-βAla-Leu-Ala-Leu-Dox = 1.0
T4 construct: made in house; host or cells: E. coli

HeLa cell trouase (F1) = target: T5, HeLa cell trouase (F1) (Homo sapiens, UniProt P52888); assay: Rates of hydrolysis by partially purified HeLa cell trouase (F1); type: biochemical; settings: 10 μg/mL substrate, pH 7.2 10 mM HEPES, 100 μM MnCl2, 37° C.; Suc-βAla-Leu-Ala-Leu-Dox = 1.0
T5 construct: The fractions containing the highest activity levels were pooled (fractions #43-46); host or cells: HeLa

[6] = Single dose Maximum Tolerated Dose (SD-MTD) study
LS174T tumor = settings: all dose regimens, Q7D×5
From the text: Statistically significant from vehicle control group: *: p<0.05; **: p<0.01 (unpaired t-test).

LS174T tumors = assay: LS174T xenograft, five weekly intravenous doses (Example 17)
MX-1 tumors = type: in vivo, mice
Method: MX-1 tumors which are moderately doxorubicin-sensitive, human breast carcinoma xenografts, were implanted subcutaneously (s.c.) and mice were weighed and tumors were measured (by caliper) at least once a week prior to start of dosing (Day 0), then twice a week during the study. Immediately before the start of dosing (Study Day −2 to Day 0), mice were randomized to various groups based on the weight of the tumors. Mice were euthanized after the tumors reached a cutoff weight of 1.5 g (cancer endpoint). Studies were terminated at Day 60.

Porcine Kidney CD10 = assay: Hydrolysis by purified CD10; type: biochemical; settings: 12.5 μg/mL, 37° C., pH 7.4, 10 hr
[7] = target: T6, HeLa cell Fraction 1 trouase (Homo sapiens, UniProt P52888); assay: Inhibition of Suc-βAla-Leu-Ala-Leu-Dox hydrolysis by HeLa cell Fraction 1; type: biochemical; settings: 3 μM
T6 construct: The fractions containing the highest activity levels were pooled (fractions #43-46); host or cells: HeLa
T6 sequence (P52888 whole entry): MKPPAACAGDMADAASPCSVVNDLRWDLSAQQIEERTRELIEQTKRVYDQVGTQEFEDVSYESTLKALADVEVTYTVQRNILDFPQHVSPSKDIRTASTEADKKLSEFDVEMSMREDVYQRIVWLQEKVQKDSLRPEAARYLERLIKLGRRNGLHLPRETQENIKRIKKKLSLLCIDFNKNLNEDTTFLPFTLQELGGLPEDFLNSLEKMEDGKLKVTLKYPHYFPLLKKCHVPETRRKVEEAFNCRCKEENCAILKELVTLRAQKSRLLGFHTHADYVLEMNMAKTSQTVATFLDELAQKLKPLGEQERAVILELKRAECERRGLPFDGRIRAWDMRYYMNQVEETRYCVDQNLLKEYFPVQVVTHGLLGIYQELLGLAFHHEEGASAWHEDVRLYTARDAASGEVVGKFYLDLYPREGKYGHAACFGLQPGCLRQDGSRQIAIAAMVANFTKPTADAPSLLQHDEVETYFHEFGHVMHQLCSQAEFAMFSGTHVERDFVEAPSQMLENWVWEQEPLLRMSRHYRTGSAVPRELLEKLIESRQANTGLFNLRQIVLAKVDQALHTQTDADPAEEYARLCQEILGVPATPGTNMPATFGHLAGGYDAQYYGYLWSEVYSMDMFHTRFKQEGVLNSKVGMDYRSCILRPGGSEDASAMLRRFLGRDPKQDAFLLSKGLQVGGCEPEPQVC

T5 sequence (P52888 whole entry): as above
T2 sequence (P52888 whole entry): as above
T4 sequence (P24155 whole entry): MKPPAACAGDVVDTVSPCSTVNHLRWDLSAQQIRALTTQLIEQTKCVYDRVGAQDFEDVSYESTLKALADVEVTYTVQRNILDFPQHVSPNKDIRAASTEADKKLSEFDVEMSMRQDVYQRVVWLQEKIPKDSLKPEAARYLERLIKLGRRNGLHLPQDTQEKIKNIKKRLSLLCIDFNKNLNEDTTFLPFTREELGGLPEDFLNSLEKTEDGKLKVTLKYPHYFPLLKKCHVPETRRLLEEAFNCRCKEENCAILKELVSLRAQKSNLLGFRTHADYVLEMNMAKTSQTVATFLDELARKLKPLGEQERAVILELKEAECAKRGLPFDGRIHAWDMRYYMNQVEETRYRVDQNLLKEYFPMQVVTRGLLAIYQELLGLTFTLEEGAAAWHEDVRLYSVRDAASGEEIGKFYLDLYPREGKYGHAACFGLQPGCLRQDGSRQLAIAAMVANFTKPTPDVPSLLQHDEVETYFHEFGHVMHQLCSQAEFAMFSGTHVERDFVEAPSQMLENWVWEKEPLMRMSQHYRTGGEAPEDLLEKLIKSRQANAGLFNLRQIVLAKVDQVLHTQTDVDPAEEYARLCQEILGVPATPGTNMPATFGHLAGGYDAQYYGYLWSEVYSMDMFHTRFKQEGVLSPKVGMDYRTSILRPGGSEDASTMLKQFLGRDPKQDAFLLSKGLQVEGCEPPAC
T1 sequence (P52888 whole entry): as the sequence (P52888 whole entry) above
T3 sequence (P52888 whole entry): as above

## O[C@H](CS)[C@H](O)CS (racemic) [DTT, dithiothreitol]
[1]
  activation of Suc-βAla-Leu-Ala-Leu-Dox hydrolysis: tenfold activation

## c1cnc2c(c1)ccc1cccnc12 [1,10 phenanthroline]
[2]; 2 mM 1,10 phenanthroline
  trouase activity inhibition: 9 fold

## CCCNC(=O)[C@H]1O[C@@H]1C(=O)N[C@H](C(=O)N1CCC[C@H]1C(=O)O)[C@@H](C)CC [CA-074]
[2]; 1 μM
  trouase activity inhibition: not inhibited

## CC(C)C[C@H](NC(=O)[C@H]1O[C@@H]1C(=O)O)C(=O)NCCCCN=C(N)N [E-64]
[2]; 20 μM E-64
  trouase activity inhibition: not inhibited

## O=C(O)CN(CCN(CC(=O)O)CC(=O)O)CC(=O)O [EDTA]
[2]; 1 mM EDTA
  trouase activity inhibition: 9 fold

## COc1cccc2c1C(=O)c1c(O)c3c(c(O)c1C2=O)C[C@@](O)(C(=O)CO)C[C@@H]3O[C@H]1C[C@H](NC(=O)[C@H](CC(C)C)NC(=O)[C@H](C)NC(=O)[C@H](CC(C)C)NC(=O)CCNC(=O)CCCC(=O)O)[C@H](O)[C@H](C)O1 [Gl-βAla-Leu-Ala-Leu-Dox]
[3]
  survival up to 8 days: all animals survived

## COc1cccc2c1C(=O)c1c(O)c3c(c(O)c1C2=O)C[C@@](O)(C(=O)CO)C[C@@H]3O[C@H]1C[C@H](NC(=O)[C@@H](N)CC(C)C)[C@H](O)[C@H](C)O1 [Leucyl-Doxorubicin]
HL-60 cells
  IC50: 0.222 µM

## COc1cccc2c1C(=O)c1c(O)c3c(c(O)c1C2=O)CC(O)(C(C)=O)CC3OC1CC(NC(=O)C(CC(C)C)NC(=O)C(C)NC(=O)C(CC(C)C)NC(=O)C(C)NC(=O)CCC(=O)O)C(O)C(C)O1 (stereo not drawn) [Suc-Ala-Leu-Ala-Leu-Dnr]
MCF 7/6 cell homogenate
  extent (rate) of cleavage versus the P2 β-alanine compound: 1.3 fold
[4]
  extent of cleavage versus the P2 β-alanine compound: 0.6 fold

## CC[C@H](C)[C@H](NC(=O)CCC(=O)O)C(=O)N[C@@H](C)C(=O)N[C@@H](CC(C)C)C(=O)N[C@H]1C[C@H](O[C@H]2C[C@](O)(C(=O)CO)Cc3c(O)c4c(c(O)c32)C(=O)c2c(OC)cccc2C4=O)O[C@@H](C)[C@H]1O [Suc-Ile-Ala-Leu-Dox]
[5]
  Rate of hydrolysis TOP: 0
HeLa cell trouase (F1)
  Rate of hydrolysis (F1): 0

## CCC(C)C(NC(=O)CCC(=O)O)C(=O)N(C)C(C)C(=O)NC(CC(C)C)C(=O)NC1CC(OC2CC(O)(C(=O)CO)Cc3c(O)c4c(c(O)c32)C(=O)c2c(OC)cccc2C4=O)OC(C)C1O (stereo not drawn) [Suc-Ile-NmAla-Leu-Dox]
[5]
  Rate of hydrolysis TOP: 0
HeLa cell trouase (F1)
  Rate of hydrolysis (F1): 0

## COc1cccc2c1C(=O)c1c(O)c3c(c(O)c1C2=O)C[C@@](O)(C(=O)CO)C[C@@H]3O[C@H]1C[C@H](NC(=O)CNC(=O)[C@H](C)NC(=O)[C@H](CC(C)C)NC(=O)CCC(=O)O)[C@H](O)[C@H](C)O1 [Suc-Leu-Ala-Gly-Dox]
[5]
  Rate of hydrolysis TOP: 0.43
HeLa cell trouase (F1)
  Rate of hydrolysis (F1): 0.4

## COc1cccc2c1C(=O)c1c(O)c3c(c(O)c1C2=O)C[C@@](O)(C(=O)CO)C[C@@H]3O[C@H]1C[C@H](NC(=O)[C@H](CC(C)C)NC(=O)[C@H](C)NC(=O)[C@H](CC(C)C)NC(=O)CCC(=O)O)[C@H](O)[C@H](C)O1 [Suc-Leu-Ala-Leu-Dox]
[5]
  Rate of hydrolysis TOP: 0.67
HeLa cell trouase (F1)
  Rate of hydrolysis (F1): 0.78

## COc1cccc2c1C(=O)c1c(O)c3c(c(O)c1C2=O)CC(O)(C(=O)CO)CC3OC1CC(NC(=O)C(CC(C)C)NC(=O)C(C)N(C)C(=O)C(CC(C)C)NC(=O)CCC(=O)O)C(O)C(C)O1 (stereo not drawn) [Suc-Leu-NmAla-Leu-Dox]
[5]
  Rate of hydrolysis TOP: 0
HeLa cell trouase (F1)
  Rate of hydrolysis (F1): 0

## COc1cccc2c1C(=O)c1c(O)c3c(c(O)c1C2=O)C[C@@](O)(C(=O)CO)C[C@@H]3O[C@H]1C[C@H](NC(=O)[C@H](CC(C)C)NC(=O)[C@H](C)NC(=O)[C@H](CCSC)NC(=O)CCC(=O)O)[C@H](O)[C@H](C)O1 [Suc-Met-Ala-Leu-Dox]
[5]
  Rate of hydrolysis TOP: 0.99
HeLa cell trouase (F1)
  Rate of hydrolysis (F1): 0.49

## CC[C@H](C)[C@H](NC(=O)CCNC(=O)CCC(=O)O)C(=O)N[C@@H](C)C(=O)N[C@@H](CC(C)C)C(=O)N[C@H]1C[C@H](O[C@H]2C[C@](O)(C(=O)CO)Cc3c(O)c4c(c(O)c32)C(=O)c2c(OC)cccc2C4=O)O[C@@H](C)[C@H]1O [Suc-βAla-Ile-Ala-Leu-Dox]
[5]
  Rate of hydrolysis TOP: <0.03
HeLa cell trouase (F1)
  Rate of hydrolysis (F1): 0.025

## COc1cccc2c1C(=O)c1c(O)c3c(c(O)c1C2=O)CC(O)(C(=O)CO)CC3OC1CC(NC(=O)C(C)NC(=O)C(C)NC(=O)C(CC(C)C)NC(=O)CCNC(=O)CCC(=O)O)C(O)C(C)O1 (stereo not drawn) [Suc-βAla-Leu-Ala-Ala-Dox]
[5]
  cleavage by TOP (presumed): well cleaved

## COc1cccc2c1C(=O)c1c(O)c3c(c(O)c1C2=O)CC(O)(C(=O)CO)CC3OC1CC(NC(=O)CNC(=O)C(C)NC(=O)C(CC(C)C)NC(=O)CCNC(=O)CCC(=O)O)C(O)C(C)O1 (stereo not drawn) [Suc-βAla-Leu-Ala-Gly-Dox]
[5]
  cleavage by TOP: well cleaved

## COc1cccc2c1C(=O)c1c(O)c3c(c(O)c1C2=O)C[C@@](O)(C(=O)CO)C[C@@H]3O[C@H]1C[C@H](NC(=O)[C@H](CC(C)C)NC(=O)[C@H](C)NC(=O)[C@H](CC(C)C)NC(=O)CCNC(=O)CCC(=O)O)[C@H](O)[C@H](C)O1 [Suc-βAla-Leu-Ala-Leu-Dox, succinyl-β-Ala-Leu-Ala-Leu-Dox]
[3]
  survival up to 8 days: all animals survived
[6]; 75 mg/kg dose group
  mortality by Day 35: 40%
[6]; 50, 75 or 100 mg/kg intravenous bolus
  acute toxicity within 24 hours: no acute toxicity
[6]; 75 and 100 mg/kg dose groups
  body weight loss (of initial weight): > 20%
[6]; doxorubicin equivalents
  SD-MTD (mg/kg Dox =): 28 mg/kg Dox =
[6]; preliminary observations
  toxicity profile compared with doxorubicin: lack of evidence of characteristic GI-toxicity, cardiotoxicity and myleosuppression of doxorubicin
LS174T tumor
  tolerability of dose regimens: very well tolerated
LS174T tumors
  tolerability under repeat-dose levels: safe and well-tolerated
MX-1 tumors; 71 mg/kg group, after Day 46
  mice with up to 20% weight loss: one out of ten
MX-1 tumors; all dose regimens, 5 doses, one every 7 days
  tolerability of dose regimens: very well tolerated

## COc1cccc2c1C(=O)c1c(O)c3c(c(O)c1C2=O)CC(O)(C(=O)CO)CC3OC1CC(NC(=O)C(CC(C)C)NC(=O)C(Cc2ccc(O)cc2)NC(=O)C(CC(C)C)NC(=O)CCNC(=O)CCC(=O)O)C(O)C(C)O1 (stereo not drawn) [Suc-βAla-Leu-Tyr-Leu-Dox]
Porcine Kidney CD10
  % hydrolysis/10 hr: 0%
  Fraction hydrolyzed relative to standard: 0

## CO[C@@H]1[C@H](OC(=O)/C=C/C=C/C=C/C=C/C(=O)O)CC[C@]2(CO2)[C@H]1[C@@]1(C)O[C@@H]1CC=C(C)C [fumagillin]
[2]; concentration not given
  carcinoma cell trouase inhibition: not

## CC(=O)N[C@@H](CC(C)C)C(=O)N[C@@H](CC(C)C)C(=O)N[C@H](C=O)CCCNC(=N)N [leupeptin]
[2]; 20 μM leupeptin
  trouase activity inhibition: not inhibited

## CC(C)CC(=O)N[C@H](C(=O)N[C@H](C(=O)N[C@@H](CC(C)C)[C@@H](O)CC(=O)N[C@@H](C)C(=O)N[C@@H](CC(C)C)[C@@H](O)CC(=O)O)C(C)C)C(C)C [pepstatin] (Isovaleryl-VV[Sta]A[Sta]-OH)
[2]; 1.5 μM
  trouase activity inhibition: not inhibited

## Mcc-Pro-Leu-Gly-Pro-D-Lys(DNP) (Mcc-PLGP-{dK(DNP)}) [quenched fluorescent substrate; Mcc = 7-Methoxycoumarin-3-carboxyl, DNP dinitrophenyl, reference compound]
[5]
  Rate of hydrolysis TOP: 1.1
HeLa cell trouase (F1)
  Rate of hydrolysis (F1): 1.5

## N-[1-(RS)-carboxypropyl-Ala-Ala-Phe-p-aminobenzoate [Cpp-AAF-pAB]
[7]
  inhibition of Suc-βAla-Leu-Ala-Leu-Dox hydrolysis: completely inhibited

## aminoethylbenzenesulfonylfluoride
[2]; 50 μM
  trouase activity inhibition: not inhibited

## aprotinin
[2]; 4 μg/mL
  trouase activity inhibition: not inhibited
